# Experimental data from ChEMBL document CHEMBL1201861, “Genomics of Drug Sensitity in Cancer screening data, Wellcome Trust Sanger Institute”.
# Columns and labels:
# RVH-421 = test: cells; type: functional, cell-based; details: Homo sapiens
# Description: SANGER: Inhibition of human RVH-421 cell growth in a cell viability assay.
# SK-OV-3 = test: cells; type: functional, cell-based; details: Homo sapiens;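 also: growth inhibition of SK-OV-3 human cells, read out with a cell viability assay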
# Description: SANGER: Inhibition of human SK-OV-3 cell growth in a cell viability assay.
# C-33-A = test: cells; type: functional, cell-based; details: Homo sapiens;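 also: cell viability assay measuring growth inhibition of C-33-A cells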
# Description: SANGER: Inhibition of human C-33-A cell growth in a cell viability assay.
# HCC1954 = test: cells; type: functional, cell-based; details: Homo sapiens;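 also: growth inhibition of human HCC1954 cells, read out with a cell viability assay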
# Description: SANGER: Inhibition of human HCC1954 cell growth in a cell viability assay.
# KARPAS-422 = test: cells; type: functional, cell-based, Homo sapiens; details: Homo sapiens, KARPAS-422
# Description: SANGER: Inhibition of human KARPAS-422 cell growth in a cell viability assay.
# KYSE-140 = test: cells; type: functional, cell-based; details: Homo sapiens;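 also: cell viability assay measuring growth inhibition in human KYSE-140 cells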
# Description: SANGER: Inhibition of human KYSE-140 cell growth in a cell viability assay.
# A204 = test: cells; type: functional, cell-based; details: Homo sapiens;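 also: growth inhibition of human A204 cells, read out with a cell viability assay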
# Description: SANGER: Inhibition of human A204 cell growth in a cell viability assay.
# IST-SL2 = test: cells; type: functional, cell-based, Homo sapiens; details: Homo sapiens, IST-SL2;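 also: growth inhibition of human IST-SL2 cells, read out by a cell viability assay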
# Description: SANGER: Inhibition of human IST-SL2 cell growth in a cell viability assay.
# A-431 = test: cells; type: functional, cell-based; details: Homo sapiens;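 also: growth inhibition of A-431 cells, determined with a cell viability read-out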
# Description: SANGER: Inhibition of human A431 cell growth in a cell viability assay.
# VM-CUB-1 = test: cells; type: functional, cell-based; details: Homo sapiens;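 also: cell viability assay measuring growth inhibition of the human VM-CUB-1 cell line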
# Description: SANGER: Inhibition of human VM-CUB-1 cell growth in a cell viability assay.
# NCI-H187 = test: cells; type: functional, cell-based, Homo sapiens; details: Homo sapiens, NCI-H187;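 also: growth inhibition of NCI-H187 cells, read out as cell viability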
# Description: SANGER: Inhibition of human NCI-H187 cell growth in a cell viability assay.
# SK-MEL-30 = test: cells; type: functional, cell-based; details: Homo sapiens;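 also: growth inhibition of SK-MEL-30 cells, determined with a cell viability assay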
# Description: SANGER: Inhibition of human SK-MEL-30 cell growth in a cell viability assay.
# 647-V = test: cells; type: functional, cell-based; details: Homo sapiens;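 also: growth inhibition of 647-V cells, read out with a cell viability assay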
# Description: SANGER: Inhibition of human 647-V cell growth in a cell viability assay.
# SBC-5 = test: cells; type: functional, cell-based; details: Homo sapiens;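 also: cell viability assay read-out, IC50 is the concentration that inhibits growth of the cells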
# Description: SANGER: Inhibition of human SBC-5 cell growth in a cell viability assay.
# NCI-H2170 = test: cells; type: functional, cell-based; details: Homo sapiens;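 also: cell viability assay measuring growth inhibition of human NCI-H2170 cancer cells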
# Description: SANGER: Inhibition of human NCI-H2170 cell growth in a cell viability assay.
# SW1783 = test: cells; type: functional, cell-based; details: Homo sapiens
# Description: SANGER: Inhibition of human SW1783 cell growth in a cell viability assay.
# A-375 = test: cells; type: functional, cell-based; details: Homo sapiens;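 also: growth inhibition of A375 cells, read out with a cell viability assay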
# Description: SANGER: Inhibition of human A375 cell growth in a cell viability assay.
# 769-P = test: cells; type: functional, cell-based; details: Homo sapiens
# Description: SANGER: Inhibition of human 769-P cell growth in a cell viability assay.
# CaR-1 = test: cells; type: functional, cell-based; details: Homo sapiens;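 also: growth inhibition of human CaR-1 cancer cells, read out with a cell viability assay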
# Description: SANGER: Inhibition of human CaR-1 cell growth in a cell viability assay.
# NCI-H1436 = test: cells; type: functional, cell-based, Homo sapiens; details: Homo sapiens, NCI-H1436;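 also: growth suppression of human NCI-H1436 cells, determined with a cell viability readout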
# Description: SANGER: Inhibition of human NCI-H1436 cell growth in a cell viability assay.
# SK-MEL3 = test: cells; type: functional, cell-based, SK-MEL-3; details: Homo sapiens;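 also: growth inhibition of human SK-MEL-3 cells, read out with a cell viability assay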
# Description: SANGER: Inhibition of human SK-MEL-3 cell growth in a cell viability assay.
# SW780 = test: cells; type: functional, cell-based; details: Homo sapiens;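 also: growth inhibition of the cells, read out with a cell viability assay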
# Description: SANGER: Inhibition of human SW780 cell growth in a cell viability assay.
# NCI-H322M = test: cells; type: functional, cell-based, Homo sapiens; details: Homo sapiens, NCI-H322M;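 also: cell viability assay measuring inhibition of growth of human NCI-H322M cells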
# Description: SANGER: Inhibition of human NCI-H322M cell growth in a cell viability assay.
# NCI-H1882 = test: cells; type: functional, cell-based, Homo sapiens; details: Homo sapiens, NCI-H1882;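 also: growth inhibition of the cell line, determined with a viability assay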
# Description: SANGER: Inhibition of human NCI-H1882 cell growth in a cell viability assay.
# IGROV-1 = test: cells; type: functional, cell-based; details: Homo sapiens;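 also: reduction of IGROV-1 cell growth, read out with a viability assay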
# Description: SANGER: Inhibition of human IGROV-1 cell growth in a cell viability assay.
# CAL-33 = test: cells; type: functional, cell-based; details: Homo sapiens;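 also: growth inhibition of CAL-33 cells, read out with a cell viability assay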
# Description: SANGER: Inhibition of human CAL-33 cell growth in a cell viability assay.
# 8505C = test: cells; type: functional, cell-based; details: Homo sapiens
# Description: SANGER: Inhibition of human 8505C cell growth in a cell viability assay.
# SW48 = test: cells; type: functional, cell-based; details: Homo sapiens;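 also: growth inhibition of SW48 cells, read out with a cell viability assay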
# Description: SANGER: Inhibition of human SW48 cell growth in a cell viability assay.
# SAOS-2 = test: cells; type: functional, cell-based; details: Homo sapiens;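 also: growth inhibition of human Saos-2 cells determined by a cell viability assay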
# Description: SANGER: Inhibition of human Saos-2 cell growth in a cell viability assay.
# AN3-CA = test: cells; type: functional, cell-based; details: Homo sapiens;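 also: growth inhibition of human AN3-CA cells measured by a cell viability assay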
# Description: SANGER: Inhibition of human AN3-CA cell growth in a cell viability assay.
# SW756 = test: cells; type: functional, cell-based; details: Homo sapiens;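 also: growth inhibition of human SW756 cells, read out with a cell viability assay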
# Description: SANGER: Inhibition of human SW756 cell growth in a cell viability assay.
# Ca-Ski = test: cells; type: functional, cell-based; details: Homo sapiens;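 also: cell viability assay measuring inhibition of Ca-Ski cell growth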
# Description: SANGER: Inhibition of human Ca-Ski cell growth in a cell viability assay.
# NCI-H1522 = test: cells; type: functional, cell-based, Homo sapiens; details: Homo sapiens, NCI-H1522;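 also: growth inhibition of NCI-H1522 cells, read out with a cell viability assay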
# Description: SANGER: Inhibition of human NCI-H1522 cell growth in a cell viability assay.
# NCI-H2141 = test: cells; type: functional, cell-based, Homo sapiens; details: Homo sapiens, NCI-H2141;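 also: growth inhibition of human NCI-H2141 cells, read out with a cell viability assay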
# Description: SANGER: Inhibition of human NCI-H2141 cell growth in a cell viability assay.
# BL-70 = test: SANGER: Inhibition of human BL-70 cell growth in a cell viability assay.; type: functional, cell-based; details: Homo sapiens, BL-70
# A 172 = test: cells; type: functional, cell-based; details: Homo sapiens;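 also: growth inhibition of A172 cells, measured with a cell viability readout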
# Description: SANGER: Inhibition of human A172 cell growth in a cell viability assay.
# SK-HEP1 = test: cells; type: functional, cell-based, SK-HEP-1; details: Homo sapiens;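 also: cell viability readout used to quantify reduction in proliferation of human SK-HEP-1 cells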
# Description: SANGER: Inhibition of human SK-HEP-1 cell growth in a cell viability assay.
# PC-3 = test: cells; type: functional, cell-based; details: Homo sapiens;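 also: cell viability assay measuring growth inhibition of PC-3 cells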
# Description: SANGER: Inhibition of human PC-3 cell growth in a cell viability assay.
# 639-V = test: cells; type: functional, cell-based; details: Homo sapiens;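 also: growth inhibition of 639-V cells, read out with a cell viability assay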
# Description: SANGER: Inhibition of human 639-V cell growth in a cell viability assay.
# CAL-120 = test: cells; type: functional, cell-based; details: Homo sapiens;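 also: cell growth inhibition, read out as cell viability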
# Description: SANGER: Inhibition of human CAL-120 cell growth in a cell viability assay.
# CESS = test: SANGER: Inhibition of human CESS cell growth in a cell viability assay.; type: functional, cell-based; details: Homo sapiens, CESS
# K052 = test: cells; type: functional, cell-based, Homo sapiens; details: Homo sapiens, K052;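 also: Read-out from a cell viability assay, IC50 reflecting suppression of K052 cell growth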
# Description: SANGER: Inhibition of human K052 cell growth in a cell viability assay.
# NCI-H596 = test: cells; type: functional, cell-based; details: Homo sapiens;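 also: growth inhibition of NCI-H596 cells, read out with a cell viability assay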
# Description: SANGER: Inhibition of human NCI-H596 cell growth in a cell viability assay.
# HT-1376 = test: cells; type: functional, cell-based; details: Homo sapiens
# Description: SANGER: Inhibition of human HT-1376 cell growth in a cell viability assay.
# EW-24 = test: cells; type: functional, cell-based, Homo sapiens; details: Homo sapiens, EW-24;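 also: human EW-24 cancer cell line, growth inhibition read out via a cell viability assay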
# Description: SANGER: Inhibition of human EW-24 cell growth in a cell viability assay.
# HCC1395 = test: cells; type: functional, cell-based; details: Homo sapiens;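 also: growth inhibition of HCC1395 cells, read out by a cell viability assay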
# Description: SANGER: Inhibition of human HCC1395 cell growth in a cell viability assay.
# ST486 = test: SANGER: Inhibition of human ST486 cell growth in a cell viability assay.; type: functional, cell-based; details: Homo sapiens, ST486
# NCI-H661 = test: cells; type: functional, cell-based; details: Homo sapiens;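 also: cell viability assay read-out, IC50 being the concentration that inhibits growth of the cells by half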
# Description: SANGER: Inhibition of human NCI-H661 cell growth in a cell viability assay.
# DK-MG = test: cells; type: functional, cell-based; details: Homo sapiens;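 also: growth inhibition of DK-MG cells, read out with a cell viability assay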
# Description: SANGER: Inhibition of human DK-MG cell growth in a cell viability assay.
# DMS-273 = test: cells; type: functional, cell-based; details: Homo sapiens
# Description: SANGER: Inhibition of human DMS-273 cell growth in a cell viability assay.
# HT1197 = test: cells; type: functional, cell-based, HT-1197; details: Homo sapiens
# Description: SANGER: Inhibition of human HT-1197 cell growth in a cell viability assay.
# SR = test: cells; type: functional, cell-based, Homo sapiens; details: Homo sapiens, SR
# Description: SANGER: Inhibition of human SR cell growth in a cell viability assay.
# LB373-MEL-D = test: cells; type: functional, cell-based, Homo sapiens; details: Homo sapiens, LB373-MEL-D;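 also: growth inhibition of the cell line, read out in a cell viability assay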
# Description: SANGER: Inhibition of human LB373-MEL-D cell growth in a cell viability assay.
# NCI-H1703 = test: cells; type: functional, cell-based; details: Homo sapiens;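 also: growth inhibition of NCI-H1703 cells, read out via a cell viability assay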
# Description: SANGER: Inhibition of human NCI-H1703 cell growth in a cell viability assay.
# NCI-H2052 = test: cells; type: functional, cell-based; details: Homo sapiens;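 also: growth inhibition of NCI-H2052 cells, read out with a cell viability assay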
# Description: SANGER: Inhibition of human NCI-H2052 cell growth in a cell viability assay.
# LB647-SCLC = test: cells; type: functional, cell-based, Homo sapiens; details: Homo sapiens, LB647-SCLC;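 also: cell growth inhibition, read out by a viability assay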
# Description: SANGER: Inhibition of human LB647-SCLC cell growth in a cell viability assay.
# HGC-27 = test: cells; type: functional, cell-based; details: Homo sapiens;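 also: growth inhibition of human HGC-27 cells, read out in a cell viability assay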
# Description: SANGER: Inhibition of human HGC-27 cell growth in a cell viability assay.
compound,measurement,setting,value
OC[C@H](Cc1ccccc1)Nc1nc(Oc2ccc3c(c2)CCC3)nc2c1ncn2Cc1ccc(-c2ccccc2)cc1,IC50,RVH-421,> 10.2 µM
same,IC50,SK-OV-3,> 10.2 µM
same,IC50,C-33-A,> 10.2 µM
same,IC50,HCC1954,10 µM
same,IC50,KARPAS-422,4.93 µM
same,IC50,KYSE-140,7.49 µM
same,IC50,A204,> 10.2 µM
same,IC50,IST-SL2,> 10.2 µM
same,IC50,A-431,3.32 µM
same,IC50,VM-CUB-1,> 10.2 µM
same,IC50,NCI-H187,> 10.2 µM
same,IC50,SK-MEL-30,8.89 µM
same,IC50,647-V,> 10.2 µM
same,IC50,SBC-5,> 10.2 µM
same,IC50,NCI-H2170,> 10.2 µM
same,IC50,SW1783,> 10.2 µM
same,IC50,A-375,6.87 µM
same,IC50,769-P,3.64 µM
same,IC50,CaR-1,> 10.2 µM
same,IC50,NCI-H1436,> 10.2 µM
same,IC50,SK-MEL3,> 10.2 µM
same,IC50,SW780,> 10.2 µM
same,IC50,NCI-H322M,> 10.2 µM
same,IC50,NCI-H1882,> 10.2 µM
same,IC50,IGROV-1,8.45 µM
same,IC50,CAL-33,> 10.2 µM
same,IC50,8505C,4.57 µM
same,IC50,SW48,> 10.2 µM
same,IC50,SAOS-2,> 10.2 µM
same,IC50,AN3-CA,> 10.2 µM
same,IC50,SW756,> 10.2 µM
same,IC50,Ca-Ski,> 10.2 µM
same,IC50,NCI-H1522,> 10.2 µM
same,IC50,NCI-H2141,> 10.2 µM
same,IC50,BL-70,4.13 µM
same,IC50,A 172,6.16 µM
same,IC50,SK-HEP1,10.1 µM
same,IC50,PC-3,> 10.2 µM
same,IC50,639-V,1.15 µM
same,IC50,CAL-120,> 10.2 µM
same,IC50,CESS,> 10.2 µM
same,IC50,K052,> 10.2 µM
same,IC50,NCI-H596,> 10.2 µM
same,IC50,HT-1376,> 10.2 µM
same,IC50,EW-24,> 10.2 µM
same,IC50,HCC1395,> 10.2 µM
same,IC50,ST486,> 10.2 µM
same,IC50,NCI-H661,> 10.2 µM
same,IC50,DK-MG,> 10.2 µM
same,IC50,DMS-273,> 10.2 µM
same,IC50,HT1197,> 10.2 µM
same,IC50,SR,> 10.2 µM
same,IC50,LB373-MEL-D,> 10.2 µM
same,IC50,NCI-H1703,> 10.2 µM
same,IC50,NCI-H2052,> 10.2 µM
same,IC50,LB647-SCLC,5.49 µM
same,IC50,HGC-27,2.31 µM
